# Paper PMC8344375 (Biochemistry, 2015)
# Several values for one entry are separate records, joined by “and”; a condition that tells them apart may be missing. Identical values can stand only once. Like-named read-outs stand apart in the source and are kept apart here.
# Assays:
# [1] = tested on: wt Tt H-NOX; assay type: binding
# [2] = biological target: wt Cb H-NOX; assay type: binding
# [3] = tested on: wt Tt H-NOX; conditions: cited from earlier work
# [4] = tested on: 6c NO-heme-His complex in wt Cb H-NOX; assay type: binding, Clostridium botulinum
# [5] = tested on: wt Cb H-NOX; conditions: cited from earlier work
# [6] = tested on: sGC; conditions: cited from earlier work
compound,measurement,setting,value
"O=O [O2, oxygen]",koff (O2),[1],1.9 s⁻¹
same,kon (O2),[1],4.3e+07 M⁻¹ s⁻¹
same,Kd,[1]; read-out: KD (O2),44 nM
same,Kd,[2]; read-out: KD (O2),53000 nM
same,koff (O2),[3],1.2^f s^−1 and 1.2^e s^−1
same,kon (O2),[3],2.5 × 10^7f M^−1 s^−1 and 1.36 × 10^7e M^−1 s^−1
same,Kd,[3]; read-out: KD (O2),0.048 µM and 0.0897 µM
nitric oxide [NO],koff (NO),[1],0.0034 s⁻¹
same,kon (NO),[1],1.5e+08 M⁻¹ s⁻¹
same,Kd,[1]; read-out: KD (NO),0.023 nM
same,k2 (quaternary complex to 5c NO-heme),[4],~ 790 s^−1
same,Kd,"[4]; read-out: KD (reaction I, NO binding to 6c NO-heme-His)",~570 µM
same,Kd,[4]; read-out: KD of reaction I,1100 µM
same,koff (NO),[5],3 × 10^−6c s^−1
same,kon (NO),[5],~ 10^8c M^−1 s^−1
same,"NO dissociation rate, fast phase",[2],0.011 s⁻¹
same,koff (NO),[2],0.012 s⁻¹
same,koff of 5c NO-heme complex,[2],1.1 × 10^−3a s^−1
same,kon (NO),[2],1.5e+08 M⁻¹ s⁻¹
same,Kd,[2]; read-out: KD (NO),0.08 nM
same,koff for 5c NO-heme,[6],0.0006 s⁻¹
same,koff(NO) of 6c NO-sGC complex,[6],27 s⁻¹
same,Kd,[6]; read-out: KD(NO)(6c),0.054 µM
same,koff (NO),[3],0.00056 s⁻¹
"[C-]#[O+] [CO, Carbon monoxide]",koff (CO),[1],0.5 s⁻¹
same,kon (CO),[1],3.3e+06 M⁻¹ s⁻¹
same,Kd,[1]; read-out: KD (CO),160 nM
same,kon (CO),[5],1.5 × 10^6d M^−1 s^−1
same,koff (CO),[2],1.0 s⁻¹
same,kon (CO),[2],1.5e+06 M⁻¹ s⁻¹
same,Kd,[2]; read-out: KD (CO),670 nM
same,koff (CO),[3],3.56^g s^−1
same,kon (CO),[3],4.1e+06 g/M/s and 2.18e+06 g/M/s
